Values of other authors in patent publication US11123318B2 (APR APPLIED PHARMA RESEARCH S.A., priority 2017, dated 2021).

Legend:
[1] = not given; remark: listed apart in the source

absorption through the gastrointestinal tract (after oral administration): completely absorbed
time to peak plasma level (after oral administration): ≤ 1 h
administered dose eliminated as the metabolite by the renal route (in vivo): About 60%
administered dose excreted in the bile and in the faeces (in vivo): About 30%
excreted as unchanged substance by the renal route (in vivo): less than 1%
solubility in water [1]: low solubility
Structure (SMILES): O=C(O)Cc1ccccc1Nc1c(Cl)cccc1Cl [Diclofenac, 2-(2-[2,6-diclorofenilammino]phenyl) ethanoic acid]
